Source: US20210299038A1, “METHOD TO PREVENT AND TREAT OCULAR CATARACT BY CALCIUM CHANNEL BLOCKERS, ANGIOTENSIN CONVERTING ENZYME INHIBITORS, AND ANGIOTENSIN RECEPTOR BLOCKERS” (priority 2018, published 2021)

Experiments:
ocular cataract [1] = assay: Treatment of a patient diagnosed with ocular cataract, one eye treated, other eye untreated; type: in vivo, human
Source text: A patient is diagnosed with ocular cataract. A composition comprising the calcium channel blocker nifedipine is directly applied to the vitreous surface of one eye while the other eye is left untreated. […] A patient is diagnosed with ocular cataract. A composition comprising the ACE inhibitor enalapril is directly applied to the vitreous surface of one eye while the other eye is left untreated. […] A patient is diagnosed with ocular cataract. A composition comprising the angiotensin receptor blocker losartan is directly applied to the vitreous surface of one eye while the other eye is left untreated. […] A patient is diagnosed with ocular cataract. A composition comprising the calcium channel blocker nifedipine is applied to the eye by intravitreal or intraocular injection while the other eye is left untreated. […] A patient is diagnosed with ocular cataract. A composition comprising the ACE inhibitor enalapril is applied to the eye by intravitreal or intraocular injection while the other eye is left untreated. […] A patient is diagnosed with ocular cataract. A composition comprising the angiotensin receptor blocker losartan is applied to the eye by intravitreal or intraocular injection while the other eye is left untreated.

ocular cataract [2] = assay: Prevention of recurrence of ocular cataract in a successfully treated patient, one eye treated, other eye untreated; type: in vivo, human; conditions: untreated eye shows recurrence
Source text: A composition comprising the calcium channel blocker nifedipine is directly applied to the vitreous surface of one eye while the other eye is left untreated. […] A composition comprising the ACE inhibitor enalapril is directly applied to the vitreous surface of one eye while the other eye is left untreated. […] A composition comprising the angiotensin receptor blocker losartan is directly applied to the vitreous surface of one eye while the other eye is left untreated. […] A composition comprising the calcium channel blocker nifedipine is applied to the eye by intravitreal or intraocular injection while the other eye is left untreated. […] A composition comprising the ACE inhibitor enalapril is applied to the eye by intravitreal or intraocular injection while the other eye is left untreated. […] A composition comprising the angiotensin receptor blocker losartan is applied to the eye by intravitreal or intraocular injection while the other eye is left untreated.

cataract opacities = conditions: 3119 participants aged 55 to 80; after 10 years of supplementation; cited from earlier work
[3] = composition applied by intravitreal or intraocular injection
[4] = composition directly applied to the vitreous surface of one eye

Row | Compound | symptoms of ocular cataract in treated eye versus untreated eye (ocular cataract [1]; [3]) | symptoms of ocular cataract in treated eye versus untreated eye (ocular cataract [1]; [4]) | development (recurrence) of ocular cataract in treated eye (ocular cataract [2]; [3]) | development (recurrence) of ocular cataract in treated eye (ocular cataract [2]; [4]) | nuclear cataract score opacities (cataract opacities)
1 | CCOC(=O)[C@H](CCc1ccccc1)N[C@@H](C)C(=O)N1CCC[C@H]1C(=O)O [enalapril] | reduced symptoms of ocular cataract | reduced symptoms of ocular cataract | not develop ocular cataract | not develop ocular cataract | 
2 | CCCCc1nc(Cl)c(CO)n1Cc1ccc(-c2ccccc2-c2nn[nH]n2)cc1 [losartan] | reduced symptoms of ocular cataract | reduced symptoms of ocular cataract | not develop ocular cataract | not develop ocular cataract | 
3 | CC1=C(/C=C/C(C)=C/C=C/C(C)=C/C=C/C=C(C)/C=C/C=C(C)/C=C/C2=C(C)C[C@@H](O)CC2(C)C)C(C)(C)C[C@H](O)C1 [zeaxanthin] |  |  |  |  | No reduction
4 | CC1=C[C@H](O)CC(C)(C)[C@H]1/C=C/C(C)=C/C=C/C(C)=C/C=C/C=C(C)/C=C/C=C(C)/C=C/C1=C(C)C[C@@H](O)CC1(C)C [lutein] |  |  |  |  | No reduction
